Data taken from patent US9359381B2, “Tricyclic compounds for inhibiting the CFTR channel” (Novartis AG, priority 2012, dated 2016).

Biological target: T1, WT-CFTR channels (Homo sapiens, UniProt P13569)
T1 construct: expressed in transfected cells
Test: IonWorks Quattro CFTR inhibitor assay (whole-cell planar patch clamp)
Format: cell-based
Conditions: inward current (−100 mV); CHO cells stably expressing WT-CFTR; CFTR activated by 10 μM forskolin; 10 min compound incubation

T1 sequence (P13569 whole entry): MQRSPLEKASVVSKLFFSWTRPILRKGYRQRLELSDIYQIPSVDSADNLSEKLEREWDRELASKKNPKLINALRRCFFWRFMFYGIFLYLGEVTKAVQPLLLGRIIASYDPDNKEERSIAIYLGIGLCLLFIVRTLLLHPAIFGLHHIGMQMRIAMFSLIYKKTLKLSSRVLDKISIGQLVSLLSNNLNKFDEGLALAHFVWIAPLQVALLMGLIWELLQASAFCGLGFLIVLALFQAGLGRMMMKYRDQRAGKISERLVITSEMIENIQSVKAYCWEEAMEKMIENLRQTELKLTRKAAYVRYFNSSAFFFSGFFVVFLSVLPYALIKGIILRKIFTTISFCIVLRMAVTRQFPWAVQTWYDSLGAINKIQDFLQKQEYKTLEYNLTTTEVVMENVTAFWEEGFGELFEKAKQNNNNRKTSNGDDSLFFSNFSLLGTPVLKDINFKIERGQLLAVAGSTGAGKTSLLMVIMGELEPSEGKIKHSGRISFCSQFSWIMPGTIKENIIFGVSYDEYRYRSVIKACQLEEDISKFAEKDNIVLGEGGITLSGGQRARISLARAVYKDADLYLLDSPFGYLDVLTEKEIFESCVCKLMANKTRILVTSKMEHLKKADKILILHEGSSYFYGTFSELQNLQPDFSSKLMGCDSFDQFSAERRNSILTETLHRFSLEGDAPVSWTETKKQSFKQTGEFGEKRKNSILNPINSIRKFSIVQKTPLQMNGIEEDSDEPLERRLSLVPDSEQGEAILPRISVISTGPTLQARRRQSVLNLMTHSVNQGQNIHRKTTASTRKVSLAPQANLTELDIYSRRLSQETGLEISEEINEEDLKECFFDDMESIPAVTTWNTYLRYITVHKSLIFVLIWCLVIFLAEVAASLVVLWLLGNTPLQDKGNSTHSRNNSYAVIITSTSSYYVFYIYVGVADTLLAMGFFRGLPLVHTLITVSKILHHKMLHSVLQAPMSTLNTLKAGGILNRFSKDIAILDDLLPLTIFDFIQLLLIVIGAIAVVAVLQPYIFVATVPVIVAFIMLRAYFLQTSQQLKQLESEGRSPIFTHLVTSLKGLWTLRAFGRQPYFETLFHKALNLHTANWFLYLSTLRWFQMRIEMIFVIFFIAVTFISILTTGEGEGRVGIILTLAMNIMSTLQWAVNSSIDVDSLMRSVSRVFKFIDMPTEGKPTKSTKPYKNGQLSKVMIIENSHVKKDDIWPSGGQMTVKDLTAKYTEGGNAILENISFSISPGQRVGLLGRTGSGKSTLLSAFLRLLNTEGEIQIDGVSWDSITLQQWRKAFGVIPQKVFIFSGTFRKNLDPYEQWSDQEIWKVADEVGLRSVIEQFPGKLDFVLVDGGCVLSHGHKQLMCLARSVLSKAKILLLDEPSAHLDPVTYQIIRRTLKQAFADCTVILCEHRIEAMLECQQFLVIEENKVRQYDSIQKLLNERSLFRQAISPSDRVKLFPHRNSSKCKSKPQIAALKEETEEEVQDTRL

IC50: 0.05 µM
Structure (SMILES): Cc1csc(-c2c3c(=O)n(C)c(=O)n(C)c3c3n2CCC[C@H]3c2nc(Cl)cs2)n1 (single isomer, unassigned) [Example 13.2a, 10-(4-chlorothiazol-2-yl)-1,3-dimethyl-5-(4-methylthiazol-2-yl)-7,8,9,10-tetrahydropyrimido[4,5-a]indolizine-2,4(1H,3H)-dione]
